Where two headings read alike, the source gives them in different places.
Conditions: amide bond, DMF
[1] = 15-membered ring, DIEA (active ester), 0.88 mM, 4 steps
[2] = 15-membered ring, ONB active ester/DIEA, 1.06 mM, 5 steps

Substance: cyclo(-Arg-D-Glu((2)-Pyp)-Tyr-D-Trp-Leu-)
- ring closure, yield after HPLC (15-membered ring, DIEA (active ester), 1.1 mM, 4 steps): 12.1%

Substance: cyclo(-Arg-D-Glu((4)-MeOPhp)-Tyr-D-Trp-Leu-)
- ring closure, yield after HPLC (15-membered ring, DIEA (active ester), 1.07 mM, 5 steps): 24.4%

Substance: cyclo(-Arg-D-Glu(Bzlp)-Tyr-D-Trp-Leu-)
- ring closure, yield after HPLC (15-membered ring, DIEA (active ester), 1.09 mM, 4 steps): 21.6%

Substance: cyclo(-Arg-D-Glu(NHCH2 CH2 Ph)-Asp (NHCH2 Ph)-D-Trp-Leu-)
- ring closure, yield after HPLC (15-membered ring, DIEA (active ester), 2.67 mM, 5 steps): 6.72%

Substance: cyclo(-Arg-D-Glu(NHCH2 CH2 Ph)-Lys(COPh)-D-Trp-Leu-)
- ring closure, yield after HPLC (15-membered ring, DIEA (active ester), 3.63 mM, 5 steps): 57.6%

Substance: cyclo(-Arg-D-Glu(NHCH2 CH2 Ph)-Lys(COPh)-D-Trp-Phe-)
- ring closure, yield after HPLC (15-membered ring, ONB active ester/DIEA, 1.28 mM, 5 steps): 5.7%

Substance: cyclo(-Arg-D-Glu(NHCH2 CH2 Ph)-Lys(COPh)-D-Trp-Trp-)
- ring closure, yield after HPLC (15-membered ring, ONB active ester/DIEA, 0.93 mM, 5 steps): 13.9%

Substance: cyclo(-Arg-D-Glu(NHCH2 CH2 Ph)-Tyr-D-Trp-Leu-)
- ring closure, yield after HPLC (15-membered ring, DIEA (active ester), 0.9 mM, 4 steps): 30.9%

Substance: cyclo(-Arg-D-Glu(NHCH2 CH2 Ph)-Tyr-D-Trp-Phe-)
- ring closure, yield after HPLC (15-membered ring, ONB active ester/DIEA, 1.08 mM, 5 steps): 37%

Substance: cyclo(-Arg-D-Glu(NHCH2 CH2 Ph)-Tyr-D-Trp-Trp-)
- ring closure, yield after HPLC (15-membered ring, ONB active ester/DIEA, 1.33 mM, 5 steps): 14.8%

Substance: cyclo(-Arg-D-Glu(NHCH2 Nap(1))-Tyr-D-Trp-Leu-)
- ring closure, yield after HPLC [1]: 56.7%

Substance: cyclo(-Arg-D-Glu(NHCH2 Ph)-Tyr-D-Trp-Leu-)
- ring closure, yield after HPLC (15-membered ring, DIEA (active ester), 0.91 mM, 4 steps): 27.1%

Substance: cyclo(-Arg-D-Glu(NHCHPh2)-Tyr-D-Trp-Leu-)
- ring closure, yield after HPLC (15-membered ring, DIEA (active ester), 0.86 mM, 4 steps): 26.1%

Substance: cyclo(-Arg-D-Glu(Php)-Tyr-D-Trp-Leu-)
- ring closure, yield after HPLC [1]: 71.7%

Substance: cyclo(-Arg-D-Lys(Ac)-Tyr-D-Trp-Leu-)
- ring closure, yield after HPLC (15-membered ring, ONB active ester/DIEA, 1.36 mM, 5 steps): 23.9%

Substance: cyclo(-Arg-D-Lys(COCH2 CH2 CH2 Ph)-Tyr-D-Trp-Leu-)
- ring closure, yield after HPLC (15-membered ring, DIEA (active ester), 3.18 mM, 5 steps): 28.7%

Substance: cyclo(-Arg-D-Lys(COCH2 Ph)-Tyr-D-Trp-Leu-)
- ring closure, yield after HPLC (15-membered ring, ONB active ester/DIEA, 0.89 mM, 5 steps): 30.6%

Substance: cyclo(-Arg-D-Lys(CoPh)-Tyr-D-Trp-Leu-)
- ring closure, yield after HPLC (15-membered ring, ONB active ester/DIEA, 2.62 mM, 5 steps): 32.7%

Substance: cyclo(-Arg-D-Lys(SO2 Nap(1))-Tyr-D-Trp-Leu-)
- ring closure, yield after HPLC [2]: 30%

Substance: cyclo(-Arg-D-Lys(SO2 Nap(2))-Trp-D-Trp-Leu-)
- ring closure, yield after HPLC (15-membered ring, HONB/DCC preactivation, DIEA, 2.47 mM, 5 steps): 27.1%

Substance: cyclo(-Arg-D-Lys-Tyr-D-Trp-Leu-)
- ring closure, yield after HPLC (15-membered ring, HONB/DCC preactivation, DIEA, 0.94 mM, 5 steps): 11.7%

Substance: cyclo(-Arg-D-Trp-Tyr-D-Trp-Leu-)
- ring closure, yield after HPLC (15-membered ring, HONB/DCC preactivation, DIEA, 1.01 mM, 5 steps): 11.5%

Substance: cyclo(-Arg-Glu(Php)-Tyr-D-Trp-Leu-)
- ring closure, yield after HPLC (15-membered ring, DIEA (active ester), 1.1 mM, 5 steps): 22.7%

Substance: cyclo(-Arg-Lys(SO2 Nap(2))-Tyr-D-Trp-Leu-)
- ring closure, yield after HPLC [2]: 48.3%

Substance: cyclo(-D-Leu-Lys(SO2 Nap(1))-D-Tyr-Arg-D-Trp-)
- ring closure, yield after HPLC (15-membered ring, ONB active ester/DIEA, 3.3 mM, 5 steps): 52.2%

Substance: cyclo(-D-Tyr-Arg-D-Trp-Leu-D-Lys(SO2 Nap(1))-)
- ring closure, yield after HPLC (15-membered ring, DIEA (active ester), 3.28 mM, 5 steps): 54.3%

Substance: cyclo(-Leu-D-Arg-Lys(SO2 Nap(1)-D-Tyr-Trp-)
- ring closure, yield after HPLC (15-membered ring, DIEA, 1.1 mM, 5 steps): 21.1%

Substance: cyclo(-Lys(isopropyl)-D-Glu(NHCH2 CH2 Ph)-Tyr-D-Lys(Nic)-Leu-)
- ring closure, yield after HPLC (15-membered ring, ONB active ester/DIEA, 1.19 mM, 5 steps): 44.3%

Substance: cyclo(-Lys-D-Glu(Php)-Tyr-D-Trp-Leu-)
- ring closure, yield after HPLC (15-membered ring, DIEA (active ester), 1.11 mM, 5 steps): 23.5%

Substance: cyclo(-Thg(2)-D-Arg(Tos)-Phe-D-Ala-Trp-)
- ring closure, yield after HPLC (15-membered ring, PyBOP/DIEA, 25.0 °C): 13.8%

Substance: cyclo(-Tyr-D-Trp-Leu-Arg-Trp-Pro-)
- ring closure, yield after HPLC (18-membered ring, DIEA, 1.0 mM, 5 steps): 15.3%

— patent US6136781A, “LH-RH receptor antagonists” (Takeda Chemical Industries, Ltd., priority 1995, dated 2000)
